For 18 molecules, IC50 results are on record in US10774082B2, “Quinazoline compound” (Astellas Pharma Inc., priority 2017, dated 2020).

The target in experiment [1] is T1, KRAS G12C/SOS/c-Raf complex (Homo sapiens, UniProt P01116, G12C).
T1 construct: Biotinylated AviTag-KRAS G12C (amino acid region 1-185, GDP)
Put plainly: KRAS G12C/SOS/c-Raf complex formation inhibitory action (TR-FRET). Format: biochemical. As to conditions: one hour at room temperature, read-out: IC50 (KRAS G12C/SOS/c-Raf complex formation inhibition). As to the method: Evaluation of KRAS G12C/SOS/c-Raf Complex Formation Inhibitory Action
Human Recombinant KRAS G12C, SOS, and c-Raf protein were used, and with respect to the complex formation of these proteins, an inhibitory action of the test compound was examined through a time-resolved fluorescence resonance energy transfer (TR-FRET) method.
Biotinylated AviTag-KRAS G12C (amino acid region 1-185, GDP) (2.5 μL; 400 nM) dissolved in assay buffer (50 mM HEPES, 150 mM NaCl, 5 mM MgCl2, 0.05% Tween 20, pH 7.4) and test compound were added in a volume of 2.5 μL from 4,000 nM to 4 nM were added to 384 well plate (Corning Inc). Son of Sevenless (SOS) (amino acid region 564-1049, 2.5 μL; 1.3 μM) and c-Raf (amino acid region 51-131) GST containing GTP (Sigma-Aldrich Co. LLC) (2.5 μL; 130 nM and 4 μM of each) were added to the above mixture, and the resultant was left to stand for one hour at room temperature. Thereafter, a mixed solution (10 μL) of LANCE Ulight-anti-GST (120 nM, PerkinElmer. Co., Ltd) and LANCE Eu-W1024 labeled Streptoavidin (100 ng/mL, PerkinElmer. Co., Ltd) was added, and a fluorescence intensity on the condition of wavelength of 620 nm and 665 nm was measured by using EnVision 2103 Multilabel Reader (PerkinElmer Co., Ltd.) under the condition of excitation wavelength of 337 nm. […] In Tables, Ex represents Example numbers described later. In addition, in Tables, Compound C represents a test compound of Example I-59 disclosed in Pamphlet of International Publication No. WO 2016/164675, and the structures of Reference Example 1 and Reference Example 2 are indicated in Table 168 described below (the same shall apply hereinafter).
Background: In TR-FRET formats the signal depends on donor and acceptor labels being close together.

Experiment [2] has as its system ERK phosphorylation (Thr 202/Tyr 204) in NCI-H1373 cells. Put plainly: ERK phosphorylation inhibitory action in NCI-H1373 (Cell ELISA). The note with it: Homo sapiens, NCI-H1373, 2 h, NCI-H1373 cells, cultured for 2 hours, 100% = 1 μM Trametinib; read-out: IC50 (ERK phosphorylation inhibition). Type of experiment: cell-based, Human. As to the method:
Evaluation of ERK Phosphorylation Inhibitory Action with Respect to Human KRAS G12C Mutation Positive Non-Small Cell Lung Cancer Strain NCI-H1373
The ERK phosphorylation inhibitory action by the test compound was evaluated by measuring phosphorylation of 202th threonine (Thr 202) and 204th tyrosine (Tyr 204) of ERK on the downstream of the KRAS signal by Cell ELISA.
NCI-H1373 cells (ATCC, CRL-5866) were seeded in 384 well plates (Greiner bio-one) at 36 μL/well each so as to be 2×10^4 cell per well. Cell culture was performed under the conditions of temperature of 37° C. in the presence of 5% CO2 by using RPMI 1640 medium (Sigma-Aldrich Co. LLC) containing 10% fetal bovine serum (GE Life Sciences).
The next day, the test compounds (six points in a range of final concentration 1,000 nM to 0.3 nM), final concentration 1 μM of Trametinib (GlaxoSmithKline Inc.; MEK inhibitor) as a positive control, and DMSO which is a solvent of the test compound as a negative control were diluted 100-fold with fresh medium, 4 μL each was added to each well, and then cultured for 2 hours. Immediately after culturing, 30 μL of 30% glyoxal solution (Wako: 40% glyoxal diluted with Phosphate Buffered Saline (PBS; Wako)) was added to each well, and the cells were left to stand at room temperature for one hour to be fixed. Thereafter, the supernatant was removed by centrifuging the plate (110×g for 7 seconds, unless otherwise stated below under the same conditions), and 20 μL of PBS containing 0.1% Triton X-100 (Amersham Biosciences Corp.) was added to each well. After being left to stand at room temperature for 10 minutes, the supernatant was removed by centrifugation, and the same operation was repeated. Next, 20 μL of PBS containing 0.5% SDS (Invitrogen) was added to each well, and the mixture was left to stand at room temperature for 30 minutes, and then centrifuged to remove the supernatant. Subsequently, 20 μL of a blocking solution (ODYSSEY Blocking Buffer; LI-COR Biosciences) was added to each well, and left to stand at room temperature for one hour. The supernatant was removed by centrifugation, and 10 μL of a blocking solution prepared by diluting ERK (Thr 202/Tyr 204) of a phosphorylation antibody (Cell Signaling Technology, Inc.) as a primary antibody to be ½, 500 amount with respect to a stock solution was added to each well and was left to stand at 4° C. for overnight.
The next day, a reaction liquid is removed by centrifuging the plate, 20 μL of 0.05% Tween-20-containing PBS (Thermo Scientific; 20×PBS Tween-20 diluted 20-fold with ion exchanged water) was added to each well, and each well was washed by removing the supernatant by centrifugation. Washing was performed three times in total. After washing, 10 μL of a blocking solution prepared by diluting IRDye 800CW Goat anti-Rabbit IgG (LI-COR Biosciences) as a secondary antibody to be 1/1,000 amount with respect to a stock solution was added to each well and was left to stand at room temperature for one hour. The reaction liquid was removed by centrifuging the plate, and each well was washed three times with 0.05% Tween-20-containing PBS in the same manner as after primary antibody reaction. The centrifugation after the third wash was 171×g for 17 seconds. After removal of the cleaning solution, the plate was left to air dry at room temperature for three hours or more and the fluorescent signal at 800 nm was measured by Aerius (LI-COR Biosciences).
When a signal value at the time of adding DMSO was set as 0% inhibition, and a signal value at the time of adding 1 μM of Trametinib was set as 100% inhibition, a value of 50% inhibition (IC50) was calculated through Sigmoid-Emax model nonlinear regression analysis.
(In general: An ELISA detects its analyte on a solid surface through an enzyme-linked reagent.)

Another experiment relates to NCI-H1373 cells. Nature of the experiment: Anchorage-independent cell proliferation inhibitory action, NCI-H1373 spheroid three-dimensional culture. Format: cell-based, Human. The note with it: Homo sapiens, NCI-H1373, 144 h, NCI-H1373 spheroid, six days, CellTiter Glo; read-out: IC50 (anchorage-independent cell proliferation inhibition). As to the method: Evaluation of Anchorage-Independent Cell Proliferation Inhibitory Action with Respect to Human KRAS G12C Mutation Positive Non-Small Cell Lung Cancer Strain NCI-H1373
An anchorage-independent cell proliferation inhibitory action by the test compound was evaluated by a spheroid three-dimensional culture.
NCI-H1373 cells were seeded in cell low adsorption U bottom 384 well plates (Prime Surface: Sumitomo Bakelite Co., Ltd.) at 36 μL/well each so as to be 5×10^2 cell per well. The cell culture was performed under the same conditions as Test example 2.
The next day, the test compounds (six points in a range of final concentration 1,000 nM to 0.3 nM) and DMSO which is a solvent of the test compound as a negative control were diluted 100-fold with fresh medium, 4 μL each was added to each well. After culturing at 37° C. in the presence of 5% CO2 for six days, 20 μL of CellTiter Glo or to CellTiter Glo 2.0 (Promega Corporation) was added to each well. After stirring for one hour at room temperature using a plate mixer (FINEPCR), an emission signal was measured with ARVO X3 (PerkinElmer Co., Ltd.).
When a signal value in a DMSO treatment was set as 0% inhibition, and a signal value in cell-free medium only was set as 100% inhibition, a value of 50% inhibition (IC50) was calculated through Sigmoid-Emax model nonlinear regression analysis.
On the technique in general: Cellular ATP, detected with luciferase, serves as a proxy for viable cell number.

T1 sequence (P01116 1-185 isoform P01116-2 G12C, one chain of several): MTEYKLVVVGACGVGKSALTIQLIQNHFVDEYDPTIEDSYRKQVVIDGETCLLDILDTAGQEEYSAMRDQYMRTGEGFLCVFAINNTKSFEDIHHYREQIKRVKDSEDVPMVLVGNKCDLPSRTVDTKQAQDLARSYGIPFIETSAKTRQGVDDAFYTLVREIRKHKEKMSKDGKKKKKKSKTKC

Take `C=CC(=O)N1CC2(CCN(c3nc(OC4CCN(CCC(F)(F)F)CC4)nc4c(OCC(F)(F)F)c(-c5c(C)ccc6[nH]ncc56)c(C=C)cc34)CC2)C1` [Example 60]: the IC50 in experiment [1] came to 98 nM; in experiment [2] it was 8.8 nM; in the experiment with NCI-H1373 cells, 35 nM.

Take `C=CC(=O)N1CC2(CCN(c3nc(OC4CCN(C)CC4)nc4c(OCc5ccccc5)c(-c5c(C)ccc6[nH]ncc56)c(C=C)cc34)CC2)C1` [Example 61]: the results for the IC50 (in experiment [1]; in experiment [2]; with NCI-H1373 cells) were 56 nM, 8.8 nM and 17 nM, respectively.

`C=CC(=O)N1CC2(CCN(c3nc(OC4CCN(CCOC)CC4)nc4c(OCC(F)(F)F)c(-c5c(C)ccc6cn[nH]c56)c(C=C)cc34)CC2)C1` [Example 62]: the figures for the IC50 (in experiment [1]; in experiment [2]; in the experiment with NCI-H1373 cells) were 37 nM, 8.8 nM and 14 nM, respectively.

As to `C=CC(=O)N1CC2(CCN(c3nc(OC4CCN(C)CC4)nc4c(OCC(C)(F)F)c(-c5c(C)ccc6[nH]ncc56)c(C=C)cc34)CC2)C1` [Example 63], the IC50 was found to be 53 nM in experiment [1], 6.6 nM in experiment [2] and 14 nM in the experiment on NCI-H1373 cells.

Regarding `C=CC(=O)N1CC2(CCN(c3nc(O[C@H]4CC[C@@H](N(C)C)CC4)nc4c(OCC(F)(F)F)c(-c5c(C)ccc6[nH]ncc56)c(C=C)cc34)CC2)C1` [Example 64], the IC50 was 32 nM in experiment [1], 9.1 nM in experiment [2] and 15 nM in the experiment with NCI-H1373 cells.

Consider `C=CC(=O)N1CC2(CCN(c3nc(OC4CCN(C)CC4)nc4c(OCc5ccc(OC(F)F)cc5)c(-c5c(C)ccc6[nH]ncc56)c(C=C)cc34)CC2)C1` [Example 66], for which the IC50 in experiment [1] worked out at 47 nM; in experiment [2] it was 9.7 nM; with NCI-H1373 cells, 39 nM.

For the molecule `C=CC(=O)N1CC2(CCN(c3nc(OC4CCN(CCN(CC)CC)CC4)nc4c(OCC(F)(F)F)c(-c5c(C)ccc6[nH]ncc56)c(C=C)cc34)CC2)C1` [Example 67], the IC50 worked out at 43 nM in experiment [1], 11 nM in experiment [2] and 18 nM in the experiment with NCI-H1373 cells.

For `C=CC(=O)N1CC2(CCN(c3nc(NC4CCN(C)CC4)nc4c(OCC(F)(F)F)c(-c5c(C)ccc6[nH]ncc56)c(C=C)cc34)CC2)C1` [Example 68], the IC50 in experiment [1] is 45 nM; in experiment [2], 12 nM; with NCI-H1373 cells it was 16 nM.

Take `C=CC(=O)N1CC2(CCN(c3nc(OC4CCCN(C)CC4)nc4c(OCC(F)(F)F)c(-c5c(C)ccc6[nH]ncc56)c(C=C)cc34)CC2)C1` (stereo not drawn) [Example 69]: the results for the IC50 (in experiment [1]; in experiment [2]; in the experiment on NCI-H1373 cells) were 50 nM, 12 nM and 17 nM, respectively.

As for `C=CC(=O)N1CC2(CCN(c3nc(OC4CCN(C(=O)N(C)C)CC4)nc4c(OCC(F)(F)F)c(-c5c(C)ccc6[nH]ncc56)c(C=C)cc34)CC2)C1` [Example 70], the IC50 was determined as 79 nM in experiment [1], 18 nM in experiment [2] and 71 nM in the experiment on NCI-H1373 cells.

In the case of `C=CC(=O)N1CC2(CCN(c3nc(OCCCN(C)C)nc4c(OCC(F)(F)F)c(-c5c(C)ccc6[nH]ncc56)c(C=C)cc34)CC2)C1` [Example 71], the results for the IC50 (in experiment [1]; in experiment [2]; with NCI-H1373 cells) were 40 nM, 14 nM and 10 nM, respectively.

Turning to `C=CC(=O)N1CC2(CCN(c3nc(OC4CCN(C5CCN(C)CC5)CC4)nc4c(OCC(F)(F)F)c(-c5c(C)ccc6[nH]ncc56)c(C=C)cc34)CC2)C1` [Example 72], the results for the IC50 (in experiment [1]; in experiment [2]; in the experiment with NCI-H1373 cells) were 41 nM, 14 nM and 24 nM, respectively.

For the molecule `C=CC(=O)N1CC2(CCN(c3nc(OC4CCN(CCN5CCCC5)CC4)nc4c(OCC(F)(F)F)c(-c5c(C)ccc6[nH]ncc56)c(C=C)cc34)CC2)C1` [Example 73], the values for the IC50 (in experiment [1]; in experiment [2]; in the experiment on NCI-H1373 cells) were 44 nM, 15 nM and 28 nM, respectively.

As to `C=CC(=O)N1CC2(CCN(c3nc(OC4CCN(C)CC4)nc4c(OCC(C)C)c(-c5c(C)ccc6[nH]ncc56)c(C=C)cc34)CC2)C1` [Example 74], the IC50 in experiment [1] turned out to be 50 nM; in experiment [2] it was 15 nM; with NCI-H1373 cells, 21 nM.

Turning to `C=CC(=O)N1CC2(CCN(c3nc(OC4CCS(=O)(=O)CC4)nc4c(OCC(F)(F)F)c(-c5c(C)ccc6[nH]ncc56)c(C=C)cc34)CC2)C1` [Example 75], the IC50 in experiment [1] was 51 nM; in experiment [2], 15 nM; in the experiment with NCI-H1373 cells, 43 nM.

On to `C=CC(=O)N1CC2(CCN(c3nc(N4CCCN(C)CC4)nc4c(OCC(F)(F)F)c(-c5c(C)ccc6[nH]ncc56)c(C=C)cc34)CC2)C1` [Example 76], for which the IC50 in experiment [1] came to 43 nM; in experiment [2], 15 nM; in the experiment with NCI-H1373 cells, 25 nM.

Turning to `C=CC(=O)N1CC2(CCN(c3nc(OC4CCN(CCOC)CC4)nc4c(OCC(F)(F)F)c(-c5c(C)ccc6[nH]nc(Cl)c56)c(C=C)cc34)CC2)C1` [Example 77], the IC50 is 56 nM in experiment [1], 16 nM in experiment [2] and 32 nM with NCI-H1373 cells.

In the case of `C=CC(=O)N1CC2(CCN(c3nc(OC4CCN(CCOC)CC4)nc4c(OCC(F)(F)F)c(-c5c(C)cc(F)c6[nH]ncc56)c(C=C)cc34)CC2)C1` [Example 78], the IC50 in experiment [1] is 47 nM; in experiment [2] it was 16 nM; with NCI-H1373 cells it was 24 nM.
